Test results from patent US9006246B2, “Tetrahydrocarboline derivative” (Ono Pharmaceutical Co., Ltd., priority 2010, dated 2015).
Structures can show the parent of a compound that is named as a salt.

Assays:
SD male rat = assay: Measurement of urethra internal pressure in rat under anesthesia; assay type: in vivo; conditions: rat under urethane anesthesia
Description: A SD male rat (Crl: CD(SD), Charles River Laboratories Japan, Inc., 7-10 weeks old) was anesthetized by subcutaneous administration of 1.5 g/kg urethane at a back of a neck. After neck median incision, a jugular vein catheter for intravenous administration was inserted. A lower abdominal part was median incised, and a urethra was ligated at around pubis. A urethral catheter for measuring a urethra internal pressure, equipped with a collar at a tip and filled with a physiological saline was inserted into a urethra through an incised bladder top, and ligation-fixed at a bladder neck part. The urethral catheter was connected to a pressure transducer (manufactured by Nihon Kohden Corporation), and a urethra internal pressure was measured. […] A urethra internal pressure reduction rate (%) was calculated based on a urethra internal pressure after compound administration, wherein a value obtained by subtracting a postmortem baseline value (minimum value of urethra internal pressure for 10 minutes after administration of somnopentyl) from a urethra internal pressure value before compound administration (0 minute) was 100%.

human ENPP2 = human ENPP2 (Homo sapiens (Human), UniProt Q13822); assay: Measurement of human ENPP2 inhibitory activity; assay type: biochemical; conditions: 16:0-LPC substrate, 37° C., 24 hours; for inhibition at 1 µM: 1 μM test compound, read-out: ENPP2 inhibition rate(%) (1 μM)
Experimental: 10 μL of a test compound solution (10% dimethyl sulfoxide) at each concentration and 40 μL of a 5 μg/mL human ENPP2 solution (buffer A: 100 mmol/L Tris-HCl (pH 9.0), 500 mmol/L NaCl, 5 mmol/L MgCl2, 0.05% Triton X-100) were mixed, 50 μL of a 2 mmol/L 16:0-lysophosphatidylcholine (LPC) solution (buffer A) was further added to react at 37° C. for 24 hours. Subsequently, to 10 μL of the reaction solution was added 90 μL of a measurement buffer (0.5 mmol/L aminoantipyrine, 0.3 mmol/L N-ethyl-N-(2-hydroxy-3-sulfopropyl)-3-methylaniline, 1 U/mL peroxidase, 3 U/mL choline oxidase, 100 mmol/L Tris-HCl (pH 8.5), 5 mmol/L CaCl2) to react at 37° C. for 20 minutes, and spectrophotometric determination was performed at 555 nm.
Using a standard curve, a choline production amount (enzyme activity) in each test compound was calculated, and the inhibitory activity rate of each test compound was calculated, wherein the enzyme activity in a positive control to which a test compound is not added, was a 0% inhibition rate, and the enzyme activity in a negative control to which a test compound and human ENPP2 are not added, were 100% inhibition. Further, concerning the present compounds shown in Table 3, an IC50 value was calculated from inhibitory activity rate at each concentration.

Structure (SMILES) | IC50 (human ENPP2) [µM] | inhibition at 1 µM (human ENPP2) [%] | further results
O=C(O)CCCCC(=O)N1CCc2c(n(CCCc3ccccc3)c3ccccc23)C1 [Example 3, 6-oxo-6-[9-(3-phenylpropyl)-1,3,4,9-tetrahydro-2H-beta-carbolin-2-yl]hexanoic acid] | 0.034 | – | urethra internal pressure (SD male rat; intravenous 0.1, 0.3, 1.0 mg/kg, FIG. 1): significantly reduced a urethra internal pressure
O=C(C[C@H]1CC[C@H](C(=O)O)CC1)N1CCc2c(n(Cc3ccc(Cl)cc3F)c3ncccc23)C1 [Example 31(24), trans-4-{2-[9-(4-chloro-2-fluorobenzyl)-5,6,8,9-tetrahydro-7H-pyrido[4′,3′:4,5]pyrrolo[2,3-b]pyridin-7-yl]-2-oxoethyl}cyclohexanecarboxylic acid] | 0.005 | – | urethra internal pressure (SD male rat; intravenous 0.03, 0.1, 0.3 mg/kg, FIG. 2): significantly reduced a urethra internal pressure
O=C(CC12CCC(C(=O)O)(CC1)C2)N1CCc2c(n(Cc3ccc(F)cc3)c3ncccc23)C1 [Example 31(188), 4-{2-[9-(4-fluorobenzyl)-5,6,8,9-tetrahydro-7H-pyrido[4′,3′:4,5]pyrrolo[2,3-b]pyridin-7-yl]-2-oxoethyl}bicyclo[2.2.1]heptane-1-carboxylic acid] | – | 98.8 | –
O=C(CC12CCC(C(=O)O)(CC1)C2)N1CCc2c(n(Cc3ccc(Cl)cc3)c3ncccc23)C1 [Example 31(189), 4-{2-[9-(4-chlorobenzyl)-5,6,8,9-tetrahydro-7H-pyrido[4′,3′:4,5]pyrrolo[2,3-b]pyridin-7-yl]-2-oxoethyl}bicyclo[2.2.1]heptane-1-carboxylic acid] | – | 99.3 | –
O=C(O)C1CCCN(CC(=O)N2CCc3c(n(Cc4cccc(F)c4)c4ncccc34)C2)C1 (stereo not shown) [Example 35(2), 1-{2-[9-(3-fluorobenzyl)-5,6,8,9-tetrahydro-7H-pyrido[4′,3′:4,5]pyrrolo[2,3-b]pyridin-7-yl]-2-oxoethyl}-3-piperidinecarboxylic acid] | 0.11 | – | –
C[C@@H]1CN(CC(=O)N2CCc3c(n(Cc4ccc(Cl)s4)c4ccccc34)C2)C[C@H](C)N1CC(=O)O [Example 35(122), rel-[(2R,6S)-4-(2-{9-[(5-chloro-2-thienyl)methyl]-1,3,4,9-tetrahydro-2H-beta-carbolin-2-yl}-2-oxoethyl)-2,6-dimethyl-1-piperazinyl]acetic acid dihydrochloride] | 0.035 | – | –
C[C@]1(C(=O)O)CC[C@H](CC(=O)N2CCc3c(n(Cc4ccc(F)cc4)c4ncccc34)C2)CC1 [Example 48(8), trans-4-{2-[9-(4-fluorobenzyl)-5,6,8,9-tetrahydro-7H-pyrido[4′,3′:4,5]pyrrolo[2,3-b]pyridin-7-yl]-2-oxoethyl}-1-methylcyclohexanecarboxylic acid] | 0.026 | – | –
C[C@]1(C(=O)O)CC[C@H](CC(=O)N2CCc3c(n(Cc4ccc(Cl)cc4)c4ncccc34)C2)CC1 [Example 48(9), trans-4-{2-[9-(4-chlorobenzyl)-5,6,8,9-tetrahydro-7H-pyrido[4′,3′:4,5]pyrrolo[2,3-b]pyridin-7-yl]-2-oxoethyl}-1-methylcyclohexanecarboxylic acid] | 0.025 | – | –
COc1cc(CC(=O)N2CCc3c(n(Cc4cc(F)cc(F)c4)c4ncccc34)C2)ccc1C(=O)O [Example 51(23), 4-{2-[9-(3,5-difluorobenzyl)-5,6,8,9-tetrahydro-7H-pyrido[4′,3′:4,5]pyrrolo[2,3-b]pyridin-7-yl]-2-oxoethyl}-2-methoxybenzoic acid] | – | 96.2 | –
COc1cc(CC(=O)N2CCc3c(n(Cc4cc(F)c(F)cc4F)c4ncccc34)C2)ccc1C(=O)O [Example 51(24), 2-methoxy-4-{2-oxo-2-[9-(2,4,5-trifluorobenzyl)-5,6,8,9-tetrahydro-7H-pyrido[4′,3′:4,5]pyrrolo[2,3-b]pyridin-7-yl]ethyl}benzoic acid] | – | 97.5 | –
Cc1cc(CC(=O)N2CCc3c(n(Cc4csc(Cl)c4)c4ncccc34)C2)ccc1C(=O)O [Example 51(48), 4-(2-{9-[(5-chloro-3-thienyl)methyl]-5,6,8,9-tetrahydro-7H-pyrido[4′,3′:4,5]pyrrolo[2,3-b]pyridin-7-yl}-2-oxoethyl)-2-methylbenzoic acid] | 0.0078 | – | –
